Reference: ChEMBL document CHEMBL5252615, “Synthesis, biological activity and mechanism of action of novel allosecurinine derivatives as potential antitumor agents” (Bioorg Med Chem, 2023)
pIC50: −log10 of the molar value. Active and inactive are the calls of the source. No cut-off for these calls is given here.

How the values were obtained:
[1] = system: K562; experiment: Induction of apoptosis in human K562 cells assessed as decrease in expression level of XIAP measured at 1 to 5 uM after 48 hrs by Western blotting analysis; format: functional, cell-based; details: dose 1-5 µM
[2] = system: SK-OV-3; experiment: Antitumor activity against human SK-OV-3 cells assessed as reduction in cell viability incubated for 72 hrs; format: functional, cell-based; details: SK-OV-3, 72 h
[3] = system: THP-1; experiment: Induction of apoptosis in human THP-1 cells assessed as early apoptotic cells at 2.5 uM after 48 hrs by Annexin-V-FITC/PI staining based flow cytometric analysis (reference value: 4.61%); format: functional
[4] = system: K562; experiment: Induction of apoptosis in human K562 cells assessed as decrease in expression level of YAP1 measured at 1 to 5 uM after 48 hrs by Western blotting analysis; format: functional, cell-based; details: dose 1-5 µM
[5] = system: HL-60; experiment: Induction of differentiation of human HL-60 cells assessed as increase in CD11b expression at 0.5 uM measured after 72 hrs by flow cytometric analysis; format: functional, cell-based
[6] = system: THP-1; experiment: Induction of apoptosis in human THP-1 cells assessed as viable cells at 2.5 uM after 48 hrs by Annexin-V-FITC/PI staining based flow cytometric analysis (reference value: 93.94%); format: functional; details: read-out: Activity
[7] = system: SK-OV-3; experiment: Antitumor activity against taxol-resistant human SK-OV-3 cells assessed as reduction in cell viability incubated for 72 hrs; format: functional, cell-based; details: SK-OV-3, 72 h
[8] = system: KG-1; experiment: Induction of apoptosis in human KG-1 cells assessed as decrease in expression level of Bcl-2 measured after 48 hrs by Western blotting analysis; format: functional, cell-based; details: dose 1-5 µM
[9] = system: U-937; experiment: Induction of apoptosis in human U-937 cells assessed as accumulation of cells at sub-G1 phase at 2.5 uM after 48 hrs by PI staining based flow cytometric analysis; format: functional, cell-based
[10] = system: U-937; experiment: Induction of apoptosis in human U-937 cells assessed as viable cells at 2.5 uM after 48 hrs by Annexin-V-FITC/PI staining based flow cytometric analysis (reference value: 94.78%); format: functional; details: read-out: Activity
[11] = system: U-937; experiment: Induction of apoptosis in human U-937 cells assessed as change in mitochondrial membrane potential after 48 hrs by JC-1 staining based flow cytometric analysis; format: functional, cell-based
[12] = system: NB-4; experiment: Induction of apoptosis in human NB4 cells assessed as viable cells at 2.5 uM after 48 hrs by Annexin-V-FITC/PI staining based flow cytometric analysis (reference value: 97.96%); format: functional; details: read-out: Activity
[13] = system: HL-60; experiment: Induction of apoptosis in human HL-60 cells assessed as necrotic cells at 2.5 uM after 48 hrs by Annexin-V-FITC/PI staining based flow cytometric analysis (reference value: 2.83%); format: functional
[14] = system: THP-1; experiment: Induction of apoptosis in human THP-1 cells assessed as necrotic cells at 2.5 uM after 48 hrs by Annexin-V-FITC/PI staining based flow cytometric analysis (reference value: 0.19%); format: functional
[15] = system: THP-1; experiment: Induction of reactive oxygen species production in human THP-1 cells at 1 to 5 uM measured after 48 hrs by DCFH-DA staining based flow cytometric analysis; format: functional, cell-based; details: dose 1-5 µM
[16] = system: U-937; experiment: Induction of reactive oxygen species production in human U-937 cells at 1 to 5 uM measured after 48 hrs by DCF fluorescence analysis; format: functional, cell-based; details: dose 1-5 µM
[17] = system: NB-4; experiment: Induction of apoptosis in human NB4 cells assessed as late apoptotic cells at 2.5 uM after 48 hrs by Annexin-V-FITC/PI staining based flow cytometric analysis (reference value: 0.89%); format: functional
[18] = system: KG-1; experiment: Induction of apoptosis in human KG-1 cells assessed as decrease in expression level of XIAP measured at 1 to 5 uM after 48 hrs by Western blotting analysis; format: functional, cell-based; details: dose 1-5 µM
[19] = system: U-937; experiment: Induction of apoptosis in human U-937 cells assessed as decrease in expression level of PARP measured at 1 to 5 uM after 48 hrs by Western blotting analysis; format: functional, cell-based; details: dose 1-5 µM
[20] = system: SU-DHL-2; experiment: Antitumor activity against human SUDHL2 cells assessed as reduction in cell viability incubated for 72 hrs; format: functional, cell-based; details: SU-DHL-2, 72 h
[21] = system: NB-4; experiment: Induction of apoptosis in human NB4 cells assessed as early apoptotic cells at 2.5 uM after 48 hrs by Annexin-V-FITC/PI staining based flow cytometric analysis (reference value: 0.86%); format: functional
[22] = system: THP-1; experiment: Induction of apoptosis in human THP-1 cells assessed as increase in expression level of p21 measured at 1 to 5 uM after 48 hrs by Western blotting analysis; format: functional, cell-based; details: dose 1-5 µM
[23] = system: K562; experiment: Induction of apoptosis in human K562 cells assessed as necrotic cells at 2.5 uM after 48 hrs by Annexin-V-FITC/PI staining based flow cytometric analysis (reference value: 1.19%); format: functional
[24] = system: NB-4; experiment: Antitumor activity against human NB4 cells assessed as reduction in cell viability incubated for 72 hrs; format: functional, cell-based; details: NB-4, 72 h
[25] = system: NB-4; experiment: Induction of apoptosis in human NB4 cells assessed as decrease in expression level of caspase 3/9 measured at 1 to 5 uM after 48 hrs by Western blotting analysis; format: functional, cell-based; details: dose 1-5 µM
[26] = system: HL-60; experiment: Induction of apoptosis in human HL-60 cells assessed as accumulation of cells at sub-G1 phase at 2.5 uM after 48 hrs by PI staining based flow cytometric analysis; format: functional, cell-based
[27] = system: K562; experiment: Induction of apoptosis in human K562 cells assessed as viable cells at 2.5 uM after 48 hrs by Annexin-V-FITC/PI staining based flow cytometric analysis (reference value: 97.34%); format: functional; details: read-out: Activity
[28] = system: THP-1; experiment: Induction of apoptosis in human THP-1 cells assessed as change in mitochondrial membrane potential after 48 hrs by JC-1 staining based flow cytometric analysis; format: functional, cell-based
[29] = system: U-937; experiment: Induction of apoptosis in human U-937 cells assessed as late apoptotic cells at 2.5 uM after 48 hrs by Annexin-V-FITC/PI staining based flow cytometric analysis (reference value: 0.94%); format: functional
[30] = system: U-937; experiment: Antitumor activity against human U-937 cells assessed as reduction in cell viability incubated for 72 hrs; format: functional, cell-based; details: U-937, 72 h
[31] = system: THP-1; experiment: Induction of apoptosis in human THP-1 cells assessed as accumulation of cells at sub-G1 phase at 2.5 uM after 48 hrs by PI staining based flow cytometric analysis; format: functional, cell-based
[32] = system: KG-1; experiment: Induction of differentiation of human KG-1 cells assessed as increase in CD11b expression at 0.5 uM measured after 72 hrs by flow cytometric analysis; format: functional, cell-based
[33] = system: KG-1; experiment: Induction of apoptosis in human KG-1 cells assessed as necrotic cells at 2.5 uM after 48 hrs by Annexin-V-FITC/PI staining based flow cytometric analysis (reference value: 2.73%); format: functional
[34] = system: NB-4; experiment: Induction of apoptosis in human NB4 cells assessed as decrease in expression level of YAP1 measured at 1 to 5 uM after 48 hrs by Western blotting analysis; format: functional, cell-based; details: dose 1-5 µM
[35] = system: THP-1; experiment: Antitumor activity against human THP-1 cells assessed as reduction in cell viability incubated for 72 hrs; format: functional, cell-based; details: THP-1, 72 h

In the case of `O=C1O[C@@]23C[C@@H](C=CC2=C1C(O)c1ccc([N+](=O)[O-])cc1)N1CCCC[C@H]13` (stereo not given in full), the Activity [1] was “Active”, the pIC50 [2] was 5.32 and the Activity [3] was 16.82%. The Activity [4] was “Active”, the Activity [5] was “Active” and the viability at 2.5 µM [6] was 69.7%. The pIC50 [7] was 5.43, the Activity [8] was “Dose-Dependent Effect” and the Activity [9] was “Active”. The viability at 2.5 µM [10] was 41.3%, the Activity [11] was “Active” and the viability at 2.5 µM [12] was 22.9%. The Activity [13] was 2.42%, the Activity [14] was 1.76% and the Activity [15] was “Active”. The Activity [16] was “Active”, the Activity [17] was 50.58% and the Activity [18] was “Active”. For the same compound, the Activity [19] was “Active”, the pIC50 [20] was 5.06 and the Activity [21] was 23.15%. For the same compound, the Activity [22] was “Active”, the Activity [23] was 6.62% and the pIC50 [24] was 5.73. For the same compound, the Activity [25] was “Active”, the Activity [26] was “Active” and the viability at 2.5 µM [27] was 77.5%. For the same compound, the Activity [28] was “Active”, the Activity [29] was 15.33% and the pIC50 [30] was 5.82. For the same compound, the Activity [31] was “Active”, the Activity [32] was “Active” and the Activity [33] was 7.79%. For the same compound, the Activity [34] was “Active” and the pIC50 [35] was 5.55.
